From patent publication US8691991B2 (priority 2004, dated 2014)

system: Pseudotyped HIV vector; assay: Pseudotyped HIV vector expressing luciferase reporter assay; assay type: cell-based; settings: Human immunodeficiency virus 1
Description: Pseudotyped HIV Vector Expressing Luciferase Reporter Assay
Expression of luciferase reporter following viral integration was performed essentially as described in Jármy, G. et al., J. Medical Virology, 64:223-231, 2001.

SMILES | IC50 [µM]
O=C(NC1CC1)c1c(O)c2ncc(Cc3ccc(F)cc3)cc2n(CCN2CCCC2=O)c1=O [Example 9, N-Cyclopropyl-7-(4-fluorobenzyl)-4-hydroxy-2-oxo-1-[2-(2-oxopyrrolidin-1-yl)ethyl]-1,2-dihydro-1,5-naphthyridine-3-carboxamide] | < 0.01
COCCNC(=O)c1c(O)c2ncc(Cc3ccc(F)cc3)cc2n(CC(=O)N2CCOCC2)c1=O [Example 84, 7-[(4-Fluorophenyl)methyl]-4-hydroxy-N-[2-(methyloxy)ethyl]-1-[2-(4-morpholinyl)-2-oxoethyl]-2-oxo-1,2-dihydro-1,5-naphthyridine-3-carboxamide] | < 0.01
Cn1c(=O)c(C(=O)NCCCN2CCOCC2)c(O)c2ncc(Cc3ccc(F)cc3)cc21 [Example 97, 7-[(4-Fluorophenyl)methyl]-4-hydroxy-1-methyl-N-[3-(4-morpholinyl)propyl]-2-oxo-1,2-dihydro-1,5-naphthyridine-3-carboxamide] | < 0.01
Cn1c(=O)c(C(=O)NCCN2CCOCC2)c(O)c2ncc(Cc3ccc(F)cc3)cc21 [Example 96, 7-[(4-Fluorophenyl)methyl]-4-hydroxy-1-methyl-N-[2-(4-morpholinyl)ethyl]-2-oxo-1,2-dihydro-1,5-naphthyridine-3-carboxamide] | < 0.01
O=C(NCCN1CCOCC1)c1c(O)c2ncc(Cc3ccc(F)cc3)cc2n(CC(=O)N2CCOCC2)c1=O [Example 83, 7-[(4-Fluorophenyl)methyl]-4-hydroxy-N-[2-(4-morpholinyl)ethyl]-1-[2-(4-morpholinyl)-2-oxoethyl]-2-oxo-1,2-dihydro-1,5-naphthyridine-3-carboxamide] | 0.01 to 0.025
COCCNC(=O)c1c(O)c2ncc(Cc3ccccc3)cc2n(Cc2nccn2C)c1=O [Example 50, 7-Benzyl-4-hydroxy-N-(2-methoxyethyl)-1-[(1-methyl-1H-imidazol-2-yl)methyl]-2-oxo-1,2-dihydro-1,5-naphthyridine-3-carboxamide] | < 0.01
Cn1c(=O)c(C(=O)NC[C@@H](O)CO)c(O)c2ncc(Cc3ccc(F)cc3)cc21 [Example 516, N-[(2R)-2,3-Dihydroxypropyl]-7-[(4-fluorophenyl)methyl]-4-hydroxy-1-methyl-2-oxo-1,2-dihydro-1,5-naphthyridine-3-carboxamide] | < 0.01
COCCNC(=O)c1c(O)c2ncc(Cc3ccc(F)cc3)cc2[nH]c1=O [Example 2, 7-(4-Fluorobenzyl)-4-hydroxy-N-(2-methoxyethyl)-2-oxo-1,2-dihydro-1,5-naphthyridine-3-carboxamide] | < 0.01
Cn1c(=O)c(C(=O)NCCO)c(O)c2ncc(Cc3ccc(F)cc3)cc21 [Example 101, 7-[(4-Fluorophenyl)methyl]-4-hydroxy-N-(2-hydroxyethyl)-1-methyl-2-oxo-1,2-dihydro-1,5-naphthyridine-3-carboxamide] | < 0.01
COCCNC(=O)c1c(O)c2ncc(Cc3ccc(F)cc3)cc2n(CC(N)=O)c1=O [Example 162, 1-(2-Amino-2-oxoethyl)-7-[(4-fluorophenyl)methyl]-4-hydroxy-N-[2-(methyloxy)ethyl]-2-oxo-1,2-dihydro-1,5-naphthyridine-3-carboxamide] | < 0.01
CC(C)(CO)CNC(=O)c1c(O)c2ncc(Cc3ccc(F)cc3)cc2[nH]c1=O [Example 85, 7-[(4-Fluorophenyl)methyl]-4-hydroxy-N-(3-hydroxy-2,2-dimethylpropyl)-2-oxo-1,2-dihydro-1,5-naphthyridine-3-carboxamide] | < 0.01
CN(C)C(=O)Cn1c(=O)c(C(=O)NCCN2CCOCC2)c(O)c2ncc(Cc3ccc(F)cc3)cc21 [Example 91, 1-[2-(Dimethylamino)-2-oxoethyl]-7-[(4-fluorophenyl)methyl]-4-hydroxy-N-[2-(4-morpholinyl)ethyl]-2-oxo-1,2-dihydro-1,5-naphthyridine-3-carboxamide] | 0.01 to 0.025
COCCNC(=O)c1c(O)c2ncc(Cc3ccccc3)cc2n(CC2CC2)c1=O [Example 54, 7-Benzyl-1-(cyclopropylmethyl)-4-hydroxy-N-(2-methoxyethyl)-2-oxo-1,2-dihydro-1,5-naphthyridine-3-carboxamide] | < 0.01
COCCN(C)C(=O)Cn1c(=O)c(C(=O)NCC(C)O)c(O)c2ncc(Cc3ccc(F)cc3)cc21 (racemic) [Example 106, (±)-7-[(4-Fluorophenyl)methyl]-4-hydroxy-N-[(2-hydroxypropyl]-1-(2-{methyl[2-(methyloxy)ethyl]amino}-2-oxoethyl)-2-oxo-1,2-dihydro-1,5-naphthyridine-3-carboxamide] | < 0.01
COCCNC(=O)c1c(O)c2ncc(Cc3ccccc3)cc2n(Cc2nccs2)c1=O [Example 62, 7-Benzyl-4-hydroxy-N-(2-methoxyethyl)-2-oxo-1-(1,3-thiazol-2-ylmethyl)-1,2-dihydro-1,5-naphthyridine-3-carboxamide] | < 0.01
COCCNC(=O)c1c(O)c2ncc(Cc3ccc(F)cc3)cc2n(Cc2nccn2C)c1=O [Example 467, 7-[(4-Fluorophenyl)methyl]-4-hydroxy-1-[(1-methyl-1H-imidazol-2-yl)methyl]-N-[2-(methyloxy)ethyl]-2-oxo-1,2-dihydro-1,5-naphthyridine-3-carboxamide] | < 0.01
O=C(NCCO)c1c(O)c2ncc(Cc3ccc(F)cc3)cc2n(CC(=O)N2CCOCC2)c1=O [Example 95, 7-[(4-Fluorophenyl)methyl]-4-hydroxy-N-(2-hydroxyethyl)-1-[2-(4-morpholinyl)-2-oxoethyl]-2-oxo-1,2-dihydro-1,5-naphthyridine-3-carboxamide] | 0.01 to 0.025
CNC(=O)Cn1c(=O)c(C(=O)NCCOC)c(O)c2ncc(Cc3ccc(F)cc3)cc21 [Example 465, 7-[(4-Fluorophenyl)methyl]-4-hydroxy-1-[2-(methylamino)-2-oxoethyl]-N-[2-(methyloxy)ethyl]-2-oxo-1,2-dihydro-1,5-naphthyridine-3-carboxamide] | < 0.01
O=C(NCCN1CCOCC1)c1c(O)c2ncc(Cc3ccc(F)cc3)cc2n(CCN2CCCC2=O)c1=O [Example 10, 7-(4-Fluorobenzyl)-4-hydroxy-N-(2-morpholin-4-ylethyl)-2-oxo-1-[2-(2-oxopyrrolidin-1-yl)ethyl]-1,2-dihydro-1,5-naphthyridine-3-carboxamide] | < 0.01
COCCNC(=O)c1c(O)c2ncc(Cc3ccccc3)cc2[nH]c1=O [Example 17] | 0.01 to 0.025
CNC(=O)c1c(O)c2ncc(Cc3ccc(F)cc3)cc2n(CC(=O)N(C)C)c1=O [Example 237, 1-[2-(Dimethylamino)-2-oxoethyl]-7-(4-fluorobenzyl)-4-hydroxy-N-methyl-2-oxo-1,2-dihydro-1,5-naphthyridine-3-carboxamide] | < 0.01
COCCNC(=O)c1c(O)c2ncc(Cc3ccc(F)cc3)cc2n(CC(=O)N(C)C)c1=O [Example 89, 1-[2-(Dimethylamino)-2-oxoethyl]-7-[(4-fluorophenyl)methyl]-4-hydroxy-N-[2-(methyloxy)ethyl]-2-oxo-1,2-dihydro-1,5-naphthyridine-3-carboxamide] | < 0.01
COCCNC(=O)c1c(O)c2ncc(Cc3ccc(F)cc3)cc2n(CC(=O)N2CCN(C)CC2)c1=O [Example 102, 7-[(4-Fluorophenyl)methyl]-4-hydroxy-N-[2-(methyloxy)ethyl]-1-[2-(4-methyl-1-piperazinyl)-2-oxoethyl]-2-oxo-1,2-dihydro-1,5-naphthyridine-3-carboxamide] | < 0.01
CCN(CC)CCNC(=O)c1c(O)c2ncc(Cc3ccccc3)cc2[nH]c1=O [N-[2-(Diethylamino)ethyl]-4-hydroxy-2-oxo-7-(phenylmethyl)-1,2-dihydro-1,5-naphthyridine-3-carboxamide, reference compound] | > 0.15
COCCNC(=O)c1c(O)c2ncc(Cc3ccc(F)cc3)cc2n(CCN2CCCC2=O)c1=O [Example 49, 7-(4-Fluorobenzyl)-4-hydroxy-N-(2-methoxyethyl)-2-oxo-1-[2-(2-oxopyrrolidin-1-yl)ethyl]-1,2-dihydro-1,5-naphthyridine-3-carboxamide] | < 0.01
CCn1c(=O)c(C(=O)N[C@@H](C)CO)c(O)c2ncc(Cc3ccc(F)cc3)cc21 [Example 124, Sodium 1-ethyl-7-[(4-fluorophenyl)methyl]-3-({[(1S)-2-hydroxy-1-methylethyl]amino}carbonyl)-2-oxo-1,2-dihydro-1,5-naphthyridin-4-olate] | < 0.01
O=C(NCCCN1CCCC1=O)c1c(O)c2ncc(Cc3ccc(F)cc3)cc2n(CC(=O)N2CCOCC2)c1=O [Example 94, 7-[(4-Fluorophenyl)methyl]-4-hydroxy-1-[2-(4-morpholinyl)-2-oxoethyl]-2-oxo-N-[3-(2-oxo-1-pyrrolidinyl)propyl]-1,2-dihydro-1,5-naphthyridine-3-carboxamide] | 0.01 to 0.025
CCOCCNC(=O)c1c(O)c2ncc(Cc3ccc(F)cc3)cc2n(CC(=O)N(C)CCOC)c1=O [Example 107, N-[2-(ethyloxy)ethyl]-7-[(4-fluorophenyl)methyl]-4-hydroxy-1-(2-{methyl[2-(methyloxy)ethyl]amino}-2-oxoethyl)-2-oxo-1,2-dihydro-1,5-naphthyridine-3-carboxamide] | < 0.01
COCCNC(=O)c1c(O)c2ncc(Cc3ccccc3)cc2n(CC(=O)N2CCOCC2)c1=O [Example 12] | < 0.01

same assay, conditions: luciferase reporter following viral integration; read-out: IC50

SMILES | IC50 [µM]
C[C@H](O)CNC(=O)c1c(O)c2ncc(Cc3ccc(F)cc3)cc2n(CCN2CCCC2=O)c1=O [Example 428, 7-(4-Fluorobenzyl)-4-hydroxy-N-[(2S)-2-hydroxypropyl]-2-oxo-1-[2-(2-oxopyrrolidin-1-yl)ethyl]-2-dihydro-1,5-naphthyridine-3-carboxamide] | < 0.01
